According to patent US20230248659A1, “IMMUNE SUPPRESSING NANOPARTICLES FOR ROBUST SENSITIZATION OF DRUG-RESISTANT CANCER” (King Abdulaziz City for Science and Technology ( KACST), priority 2021, published 2023):
Where two headings read alike, the source gives them in different places.

Test system: MDA-MB-231 cells
Assay: LPS-mediated DOX resistance, AlamarBlue cell viability assay
Type: cell-based
Conditions: Homo sapiens
Protocol: LPS ability to mediate DOX-resistance was examined to simulate the MDR phenotype of MDA-MB-231. Herein, there is compared the sensitivity of non-stimulated MDA-MB-231 cells and LPS-stimulated cells at an optimized migratory concentration of LPS (20 µg/mL) to DOX treatment. AlamarBlue cell viability assay was used to evaluate the ability of LPS activation to induce DOX resistance. […] On the contrary, LPS-stimulated cells were 64±4% viable after 24 hr of DOX-treatment. Remarkably, pretreatment with LPS for 24 hr was clearly able to reduce chemosensitivity, lessen DOX cytotoxicity, and increase cell survival approximately to 6-fold (p-value <0.0005) after 48 hr treatment. These quantitative results provide strong evidence of inflammation-based MDR mechanism specifically to DOX treatment in MDA-MB-231 cells.
MDA-MB-231 cells were plated out in 96-well tissue culture plates at 1 ×10^4 cells per well and treated with or without LPS at concentration of (20 µg/mL) for 24 hr. Cells were then left untreated or treated simultaneously with (0.67 µg/mL) of the chemotherapeutic drug (DOX) and various doses of CS-TPP-HA-AGP NPs (50, 100, and 300 µg/ml). After further incubation for 48 or 72 hr, Cells were subjected to AlamarBlue cell viability assay. […] Fluorescence spectra were recorded at λex:550, λem:600 using BioTek Cytation 5™ multi-mode Microplate Reader-Gen5™ software.

COc1cccc2c1C(=O)c1c(O)c3c(c(O)c1C2=O)C[C@@](O)(C(=O)CO)C[C@@H]3O[C@H]1C[C@H](N)[C@H](O)[C@H](C)O1 [DOX, doxorubicin]
viability at 0.67 µg/mL (MDA-MB-231, 24 h, read-out: cell viability): 64 ± 4% | viability at 0.67 µg/mL (MDA-MB-231, read-out: cell viability): 11 ± 10%
